Source: patent publication US20150030566A1, “ANTIMICROBIAL PEPTIDE COMPOSITIONS FOR PLANTS” (Stellenbosch University, priority 2012, published 2015)
≈ marks a conversion by molar mass, not a printed value. Residues, ends and D or L forms follow the SMILES beside them.

Legend:
[1] = tested on: Cylindrocarpon; assay: Hydration tank assay, spore viability; type: cell-based
Experimental: This loss of activity in solution was, however, overcome by increasing the Trx mix concentration to 20 mg/L. It must also be emphasized that the Trc mix activity was tested at 10 times (10^7 spores/L) the spore concentration used for the testing of commercial fungicides and at 100 times the spore concentration usually observed in contaminated grapevine material (personal communication with the Department of Plant pathology, Stellenbosch University).
The activities of the GS and Trc mix were also assessed in the presence of and absence of grapevine stem material in a simulated hydration tank environment. Each 5.0 mL assay contained fungal spores at 10 000 spores/mL, peptide at 10 and 20 μg/mL and grapevine stem material. Grapevine stem material was washed with 70% ethanol and rinsed with sterile water before placement in inoculated hydration tanks, whereafter the Trc mix was added. Controls contained either the peptide or grapevine stem material. The assays were incubated at room temperature for 16 hours, whereafter three 100 μl aliquots of each assay were plated on PDA agar and allowed to grow for three days at 25° C. Some plates were stained with Coomassie brilliant blue stain (0.025% Coomassie, 12.5% isopropanol and 10% acetic acid) for better visualization of the fungal colonies. The number of colonies that developed after three days was recorded and expressed as percentage viable spores after comparing to the control samples which contained no peptide.

[2] = tested on: Aspergillus fumigatus ATCC 204305; assay: Microdilution broth assay; type: cell-based
Experimental: (§1) Microdilution broth and agar assays were used to assess the antifungal activity of the cyclic decapeptides in liquid media and on solid (gel) media, respectively.
(§2) The antibacterial activity of the tyrocidines and gramicidin S against all the bacteria tested was determined by the methods described by Du Toit E A and Rautenbach M (2000) J. Microbiol. Methods, 42, 159-165. The antifungal activity of the tyrocidines against all the […] tested was determined by the methods described by Troskie A M, Vlok N M and Rautenbach M (2012) J. Microbiol. Methods, 91, 551-558.

[3] = tested on: Penicillium glabrum (wood isolate); assay: Microdilution broth assay; type: cell-based
Experimental: as §1, §2

[4] = tested on: Penicillium expansum (peach isolate); assay: Microdilution broth assay; type: cell-based
Experimental: as §1, §2

[5] = tested on: Fusarium oxysporum; assay: Microdilution broth assay; type: cell-based
Experimental: as §1, §2

[6] = tested on: Fusarium verticilliodes; assay: Microdilution broth assay; type: cell-based
Experimental: as §1, §2

[7] = tested on: Penicillium digitatum (citrus isolate); assay: Microdilution broth assay; type: cell-based
Experimental: as §1, §2

[8] = tested on: Botrytis cinerea; assay: Microdilution broth assay; type: cell-based; parameters: MIC + SEM / MIC against B. cinerea in PDB (n): unit not given beside the values
Experimental: as §1, §2

[9] = tested on: fungal pathogens; assay: Sterilization of field-gathered grapevine material for plant cultures; type: in vivo; details: in the washing step or in the growth media; without a major detrimental effect to the plant material; results not shown
Experimental: (§3) The Trc mix and GS were also tested for use in the sterilization of field-gathered grapevine material for use in plant cultures.

[10] = tested on: Delphinium flowers; assay: Cut flower trials, Delphinium; type: in vivo, Delphinium hybrid
Experimental: Trials with Delphinium flowers and 25 mg/L and 50 mg of GS or Trc mix and GS+Trc mix (50 mg/L combined concentration), were conducted.
(§4) Cut flower trials on mini hybrids of the African daisy (Gerbera hybrid) and blue larkspur (Delphinium hybrid) were conducted on 3-day old flowers. Flowers were prepared by cutting 3-5 cm of each stem and each placed separately in a measuring flask with 100 mL containing either no additive, Trc mix (35 mg/L for Gerbera and 25 mg/l for Delphinium), GS (35 mg/L for Gerbera and 25 mg/L for Delphinium), Trc mix+GS (combined 70 mg/L for Gerbera and combined 50 mg/L for Delphinium) or commercial additive for flower preservation. Flowers (6-12 per trial) were kept in a room with both natural and fluorescent lighting (16 hours light/day) at 22±1° C. The volume of water was monitored every 24 hours and noted for each flower.
(§5) Flower condition was rated from 0 to 5, with 0=dead, 1=flower petals dehydrated, closed and drooping, 2=flower still partially open but dehydrated and drooping, 3=flower starts drooping, petals soft, 4=some petals becoming soft, flower still in good condition and 5=flower is in pristine condition with taught petals and stem/leaves.

[11] = tested on: Botrytis cinerea; assay: Agar (gel) assay; type: cell-based; parameters: MIC + SEM: unit not given beside the values
Experimental: as §1, §2

[12] = tested on: African daisy (Gerbera hybrid); assay: Cut flower trials, Gerbera; type: in vivo; details: GS at 35 mg/L alone or in the GS+Trc mix
Experimental: Water uptake was initially better than observed for a commercial product for cut-flower preservation (FIG. 4A).
as §4, §5

[13] = tested on: fungal pathogens; assay: Plant culture assay, fungal pathogens in growth media; type: in vivo; details: without a major detrimental effect to the plant material
Experimental: as §3
(§6) Grapevine tissue culture plants were transferred to MS medium containing GS or Trc mix at a concentration of 15 μg/mL and incubated at 25° C. with a 16 h/8 h day night cycle. The growth and development of the grapevine plantlets were monitored and compared to the control set of plants which were maintained on MS-medium without GS or Trc mix.

[14] = tested on: Grapevine tissue culture plants; assay: Plant culture assay, growth and development of plantlets; type: in vivo; details: 15 mg/L in MS medium
Experimental: as §3, §6

[15] = tested on: Micrococcus luteus NCTG 8340; assay: Agar assay; type: cell-based; parameters: unit not given beside the values
Experimental: as §1, §2

[16] = tested on: Escherichia coli HB101; assay: Agar assay; type: cell-based; parameters: unit not given beside the values
Experimental: as §1, §2

[17] = tested on: Cylindrocarpon liriodendri; assay: Agar assay; type: cell-based; parameters: unit not given beside the values
Experimental: as §1, §2

[18] = tested on: Phomopsis viticola; assay: Agar assay; type: cell-based; parameters: unit not given beside the values
Experimental: as §1, §2

[19] = tested on: Talaromyces ramulosus (peach isolate); assay: Agar assay; type: cell-based; parameters: unit not given beside the values
Experimental: as §1, §2

[20] = tested on: Fusarium solani; assay: Agar (gel) assay; type: cell-based
Experimental: as §1, §2

Q: Which results are given for `CC(C)C[C@@H]1NC(=O)[C@H](CCCN)NC(=O)[C@H](C(C)C)NC(=O)C2CCCN2C(=O)[C@@H](Cc2ccccc2)NC(=O)[C@H](CC(C)C)NC(=O)[C@H](CCCN)NC(=O)[C@H](C(C)C)NC(=O)C2CCCN2C(=O)[C@@H](Cc2ccccc2)NC1=O` (some centres unmarked) [GS, Cyclo-(VOLfPVOLfP)] (HELM PEPTIDE1{L.[dF].[O=C(C1CCCN1[*:1])[*:2]].V.[Orn].L.[dF].[O=C(C1CCCN1[*:1])[*:2]].V.[Orn]}$PEPTIDE1,PEPTIDE1,1:R1-10:R2$$$V2.0)?
A: percentage viable spores compared to the growth/survival controls ([1]; +gvs, 10 μg/ml peptide): 0%; percentage viable spores compared to the growth/survival controls ([1]; +gvs, 20 μg/ml peptide): 0%; percentage viable spores compared to the growth/survival controls ([1]; −gvs, 10 μg/ml peptide): 0%; percentage viable spores compared to the growth/survival controls ([1]; −gvs, 20 μg/ml peptide): 0%; MIC + SEM [2]: 8.6 ± 0.7; MIC + SEM [3]: 4.0 ± 0.5; MIC + SEM [4]: 3.7 ± 0.3; MIC + SEM [5]: 2.6 ± 0.2; MIC + SEM [6]: 3.5 ± 0.3; MIC + SEM [7]: 3-4; MIC + SEM ([8]; Broth, Botrytis cinerea): 2.8 ± 0.3; MIC against B. cinerea in PDB (n) ([8]; potato dextrose broth (low salt PDB)): 1.8 ± 0.3; concentration sufficient to eliminate fungal pathogens [9]: 20 mg/L; phytotoxicity ([10]; 25 mg/L): did not show overt phytotoxicity; phytotoxicity ([10]; 50 mg/L): proved to be phytotoxic; MIC + SEM ([11]; Agar, Botrytis cinerea): 2.5 ± 0.3; IC50 ± SEM ([11]; B. cinerea on PDA): 2.0 ± 0.3 µg/mL; MIC ± SEM ([11]; B. cinerea on PDA): 2.8 ± 0.3 µg/mL; IC50 ± SEM ([11]; B. cinerea on YTSA): 4.5 ± 1.1 µg/mL; MIC ± SEM ([11]; B. cinerea on YTSA): 8.2 ± 1.8 µg/mL; benefit to flower survival [12]: did not benefit flower survival; phytotoxicity [12]: may have led to some phytotoxicity; concentration sufficient to eliminate fungal pathogens in the growth media [13]: 15 mg/L; effect on root growth [14]: root growth was visibly affected; effect on plant culture survival and growth ([14]; vs control plants): enhanced plant culture survival and foliage growth; MIC + SEM [15]: 6; MIC + SEM [16]: 40; MIC + SEM [17]: <10; MIC + SEM [18]: <10; MIC + SEM [19]: 3.6 ± 0.3; MIC + SEM ([20]; Agar, Fusarium solani): 5.5 ± 1.3; IC50 ± SEM ([20]; F. solani on PDA): 4.9 ± 1.2 µg/mL (≈ 4.29 µM); MIC ± SEM ([20]; F. solani on PDA): 6.3 ± 1.5 µg/mL (≈ 5.52 µM); IC50 ± SEM ([20]; F. solani on YTSA): 9.6 ± 0.5 µg/mL (≈ 8.41 µM); MIC ± SEM ([20]; F. solani on YTSA): 19.9 ± 1.2 µg/mL (≈ 17.4 µM)
